From patent US12466781B2, “Thyromimetics” (Autobahn Therapeutics, Inc., priority 2019, dated 2025)

Tests used:
TRβ = molecular target: T1, TRβ (Homo sapiens, UniProt P10828); test: Thyroid-hormone reporter-gene assay (TRβ-Gal4 hybrid, luciferase, HEK293); assay type: cell-based; conditions: Table 2; for T3-SI (selectivity index): calculated as EC50 (TRα)/EC50 (TRβ); for EC50: reporter cells, 24 hr incubation, read-out: TRβ (EC50)
T1 construct: expressed in transfected cells; host or cells: HEK293
T1 sequence (P10828 217-461 limits assumed): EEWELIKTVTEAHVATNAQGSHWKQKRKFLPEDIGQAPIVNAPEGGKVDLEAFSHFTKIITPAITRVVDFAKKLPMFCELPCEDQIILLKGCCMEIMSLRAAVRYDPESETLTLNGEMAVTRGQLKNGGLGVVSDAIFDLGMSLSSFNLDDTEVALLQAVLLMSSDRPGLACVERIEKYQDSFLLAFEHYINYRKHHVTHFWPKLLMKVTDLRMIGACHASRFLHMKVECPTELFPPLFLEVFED
Protocol: (§1) Compounds were tested for thyroid-hormone receptor activity using TR reporter-gene assays. Reporter cells used in the assays express a TR-receptor hybrid (either TRα or TRβ) in which the native N-terminal DNA binding domain (DBD) has been replaced with that of the yeast Gal4 DBD. The reporter gene, firefly luciferase, is functionally linked to the Gal4 upstream activation sequence (UAS). Both cell lines were derived from human embryonic kidney (HEK293).
(§2) Step 1: A suspension of reporter cells was prepared in cell recovery medium containing 10% charcoal-stripped FBS, and dispensed into assay plates. The plates were pre-incubated for 6 hours in a cell culture incubator (37° C./5% CO2/85% humidity).
(§3) These intermediate stocks were subsequently diluted directly into compound screening medium containing 10% charcoal-stripped FBS to generate “2×-concentration” treatment media (containing 0.2, 0.4 or 0.8% DMSO).
(§4) Step 3: At the end of the pre-incubation period, culture media were discarded from the assay plates, and all wells received 100 μl of compound screening medium. 100 μl of each of the previously prepared “2×-concentration” treatment media were dispensed into duplicate assay wells, thereby achieving the desired final treatment concentrations. The final concentration of DMSO in all assay wells was 0.1, 0.2 or 0.4%. Assay plates were incubated for 24 hr in a cell culture incubator (37° C./5% CO2/85% humidity).
(§5) Step 4: At the 24 h assay endpoint, treatment media were discarded and 100 μl/well of luciferase detection reagent was added. Relative luminometer units (RLUs) were quantified from each assay well.

TRα = molecular target: T2, TRα (Homo sapiens, UniProt P10827); test: Thyroid-hormone reporter-gene assay (TRα-Gal4 hybrid, luciferase, HEK293); assay type: cell-based; conditions: reporter cells, 24 hr incubation; Table 2; read-out: TRα (EC50)
T2 construct: expressed in transfected cells; host or cells: HEK293
T2 sequence (P10827 163-410 isoform P10827-2 limits assumed): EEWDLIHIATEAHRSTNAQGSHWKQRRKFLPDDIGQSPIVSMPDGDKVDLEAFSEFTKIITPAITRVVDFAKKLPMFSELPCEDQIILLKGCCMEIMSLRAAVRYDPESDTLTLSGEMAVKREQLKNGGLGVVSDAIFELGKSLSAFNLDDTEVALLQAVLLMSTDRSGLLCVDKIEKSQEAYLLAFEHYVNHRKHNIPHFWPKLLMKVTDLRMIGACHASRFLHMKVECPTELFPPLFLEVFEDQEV
Protocol: as §1, §2, §3, §4, §5

| T3-SI (selectivity index) (TRβ) | EC50 (TRβ) [nM] | EC50 (TRα) [nM] | SMILES |
| --- | --- | --- | --- |
| ++ (3×<T3-SI≤30×) | < 10 | 10 to 100 | Cc1cc(OCC(=O)O)cc(C)c1Cc1ccc(O)c(C(C)c2ccc(F)cc2)c1F (stereo not drawn) [Compound 6, 2-(4-(2-fluoro-3-(1-(4-fluorophenyl)ethyl)-4-hydroxybenzyl)-3,5-dimethylphenoxy)acetic acid] |
| ++ (3×<T3-SI≤30×) | < 10 | < 10 | CC(C)c1cc(OCC(=O)O)cc(Cl)c1Cc1ccc(O)c(C(C)C)c1F [Compound 47, 2-(3-chloro-4-(2-fluoro-4-hydroxy-3-isopropylbenzyl)-5-isopropylphenoxy)acetic acid] |
| ++ (3×<T3-SI≤30×) | 10 to 100 | 10 to 100 | CCc1cc(OCC(=O)O)c(F)c(Cl)c1Cc1ccc(O)c(C(C)C)c1 [Compound 77, 2-(3-chloro-5-ethyl-2-fluoro-4-(4-hydroxy-3-isopropylbenzyl)phenoxy)acetic acid] |
| ++ (3×<T3-SI≤30×) | 10 to 100 | 100 to 1000 | O=C(O)COc1cc(Cl)c(Cc2ccc(O)c(-c3cccc(OC(F)F)c3)c2F)c(Cl)c1 [Compound 24, 2-(3,5-dichloro-4-((3′-(difluoromethoxy)-2-fluoro-6-hydroxy-[1,1′-biphenyl]-3-VI)methyl)phenoxy)acetic acid] |
| ++ (3×<T3-SI≤30×) | < 10 | 10 to 100 | CC(C)c1c(O)ccc(Cc2c(Cl)cc(OCC(=O)O)c(F)c2Cl)c1F [Compound 97, 2-(3,5-dichloro-2-fluoro-4-(2-fluoro-4-hydroxy-3-isopropylbenzyl)phenoxy)acetic acid] |
| ++ (3×<T3-SI≤30×) | 10 to 100 | 10 to 100 | CON(C)C(=O)COc1cc(Cl)c(Cc2ccc(O)c(C(C)C)c2F)c(Cl)c1 [Compound 22, 2-(3,5-dichloro-4-(2-fluoro-4-hydroxy-3-isopropylbenzyl)phenoxy)-N-methoxy-N-methylacetamide] |
| ++ (3×<T3-SI≤30×) | 100 to 1000 | > 1000 | O=C(O)COc1cc(Cl)c(Cc2ccc(O)c(-c3cc(OC(F)F)ccc3F)c2F)c(Cl)c1F [Compound 101, 2-(3,5-dichloro-4-((5′-(difluoromethoxy)-2,2′-difluoro-6-hydroxy-[1,1′-biphenyl]-3-yl)methyl)-2-fluorophenoxy)acetic acid] |
| ++ (3×<T3-SI≤30×) | 10 to 100 | 100 to 1000 | O=C(O)COc1cc(Cl)c(Cc2ccc(O)c(-c3cc(OC(F)F)ccc3F)c2F)c(Cl)c1 [Compound 26, 2-(3,5-dichloro-4-((5′-(difluoromethoxy)-2,2′-difluoro-6-hydroxy-[1,1′-biphenyl]-3-VI)methyl)phenoxy)acetic acid] |
| ++ (3×<T3-SI≤30×) | 10 to 100 | 100 to 1000 | CCC(c1ccc(F)cc1)c1c(O)ccc(Cc2c(Cl)cc(OCC(=O)O)cc2Cl)c1F (stereo not drawn) [Compound 32, 2-(3,5-dichloro-4-(2-fluoro-3-(1-(4-fluorophenyl)propyl)-4-hydroxybenzyl)phenoxy)acetic acid] |
| +++ (T3-SI>30×) | 10 to 100 | 100 to 1000 | Cc1c(F)c(OCC(=O)O)cc(Cl)c1Cc1ccc(O)c(C(C)C)c1 [Compound 118, 2-(5-chloro-2-fluoro-4-(4-hydroxy-3-isopropylbenzyl)-3-methylphenoxy)acetic acid] |
| ++ (3×<T3-SI≤30×) | 100 to 1000 | 100 to 1000 | CCOC(=O)COc1cc(Cl)c(Cc2ccc(O)c(C(C)C)c2)c(Cl)c1OC [Compound 165, ethyl 2-(3,5-dichloro-4-(4-hydroxy-3-isopropylbenzyl)-2-methoxyphenoxy)acetate] |
| +++ (T3-SI>30×) | 100 to 1000 | > 1000 | CC(C)c1cc(Cc2c(Cl)cc(OCC(=O)O)c(F)c2C(C)C)ccc1O [Compound 73, 2-(5-chloro-2-fluoro-4-(4-hydroxy-3-isopropylbenzyl)-3-isopropylphenoxy)acetic acid] |
| ++ (3×<T3-SI≤30×) | < 10 | 10 to 100 | CC(c1ccc(F)cc1)c1c(O)ccc(Cc2c(Cl)cc(OCC(=O)O)cc2Cl)c1F (stereo not drawn) [Compound 30, 2-(3,5-dichloro-4-(2-fluoro-3-(1-(4-fluorophenyl)ethyl)-4-hydroxybenzyl)phenoxy)acetic acid] |
| +++ (T3-SI>30×) | 100 to 1000 | > 1000 | CCCC(c1ccc(F)cc1)c1cc(Cc2c(Cl)cc(OCC(=O)O)c(F)c2Cl)ccc1O (stereo not drawn) [Compound 85, 2-(3,5-dichloro-2-fluoro-4-(3-(1-(4-fluorophenyl)butyl)-4-hydroxybenzyl)phenoxy)acetic acid] |
| ++ (3×<T3-SI≤30×) | 10 to 100 | 10 to 100 | CC(c1ccc(F)cc1)c1c(O)ccc(Cc2c(Cl)cc(OCC(=O)O)c(F)c2Cl)c1F (stereo not drawn) [Compound 107, 2-(3,5-dichloro-2-fluoro-4-(2-fluoro-3-(1-(4-fluorophenyl)ethyl)-4-hydroxybenzyl)phenoxy)acetic acid] |
| ++ (3×<T3-SI≤30×) | < 10 | 10 to 100 | Cc1c(F)c(OCC(=O)O)cc(Cl)c1Cc1ccc(O)c(C(C)C)c1F [Compound 112, 2-(5-chloro-2-fluoro-4-(2-fluoro-4-hydroxy-3-isopropylbenzyl)-3-methylphenoxy)acetic acid] |
| ++ (3×<T3-SI≤30×) | 100 to 1000 | > 1000 | Cc1cc(OCC(=O)O)cc(C)c1Cc1ccc(O)c(-c2cccc(OC(F)F)c2)c1F [Compound 3, 2-(4-((3′-(difluoromethoxy)-2-fluoro-6-hydroxy-[1,1′-biphenyl]-3-yl)methyl)-3,5-dimethylphenoxy)acetic acid] |
| ++ (3×<T3-SI≤30×) | 10 to 100 | 100 to 1000 | CC(C)c1c(O)ccc(Cc2c(Cl)cc(OCC(=O)O)cc2Cl)c1Cl [Compound 49, 2-(3,5-dichloro-4-(2-chloro-4-hydroxy-3-isopropylbenzyl)phenoxy)acetic acid] |
| ++ (3×<T3-SI≤30×) | 10 to 100 | 10 to 100 | CNC(=O)COc1cc(C)c(Cc2ccc(O)c(C(C)C)c2)c(F)c1F [Compound 133, 2-(2,3-difluoro-4-(4-hydroxy-3-isopropylbenzyl)-5-methylphenoxy)-N-methylacetamide] |
| ++ (3×<T3-SI≤30×) | 100 to 1000 | > 1000 | Cc1cc(OCC(=O)O)cc(C)c1Cc1ccc(O)c(C(C)C)c1F [Compound 2, 2-(4-(2-fluoro-4-hydroxy-3-isopropylbenzyl)-3,5-dimethylphenoxy)acetic acid] |
| ++ (3×<T3-SI≤30×) | 10 to 100 | 100 to 1000 | CCc1cc(OCC(=O)Nc2onc(C)c2C)cc(Cl)c1Cc1ccc(O)c(C(C)C)c1F [Compound 142, 2-(3-chloro-5-ethyl-4-(2-fluoro-4-hydroxy-3-isopropylbenzyl)phenoxy)-N-(3,4-dimethylisoxazol-5-yl)acetamide] |
| +++ (T3-SI>30×) | 10 to 100 | 10 to 100 | O=C(O)COc1cc(Cl)c(Cc2ccc(O)c(Cc3ccc(F)cc3)c2F)c(Cl)c1F [Compound 103, 2-(3,5-dichloro-2-fluoro-4-(2-fluoro-3-(4-fluorobenzyl)-4-hydroxybenzyl)phenoxy)acetic acid] |
| +++ (T3-SI>30×) | 10 to 100 | 100 to 1000 | C=Cc1cc(OCC(=O)O)c(F)c(Cl)c1Cc1ccc(O)c(C(C)C)c1 [Compound 75, 2-(3-chloro-2-fluoro-4-(4-hydroxy-3-isopropylbenzyl)-5-vinylphenoxy)acetic acid] |
| ++ (3×<T3-SI≤30×) | 10 to 100 | 10 to 100 | CCc1cc(OCC(=O)O)cc(C)c1Cc1ccc(O)c(C(C)C)c1F [Compound 9, 2-(3-ethyl-4-(2-fluoro-4-hydroxy-3-isopropylbenzyl)-5-methylphenoxy)acetic acid] |
| +++ (T3-SI>30×) | 10 to 100 | 100 to 1000 | C=C(C)c1cc(OCC(=O)O)c(F)c(Cl)c1Cc1ccc(O)c(C(C)C)c1 [Compound 79, 2-(3-chloro-2-fluoro-4-(4-hydroxy-3-isopropylbenzyl)-5-(prop-1-en-2-yl)phenoxy)acetic acid] |
